Reference: patent publication US7820650B2, “Antifungal 4-substituted 5,6-dihydro-4H-pyrrolo [1,2-a][1,4]benzodiazepines” (Janssen Pharmaceutica NV, priority 2000, dated 2010)

Experiments:
Test in all cases: Determination of fungal susceptibility (MIC, microdilution in CYG medium)
Assay type in all cases: cell-based
[1] = tested on: Aspergillus fumigatus; settings: single isolate, 5 days at 30° C., growth (OD 405 nm) inhibited to 35% of control or less
Experimental: (§1) A panel single isolates of the dermatophytes Sporothrix schenckii; Microsporum canis; Trichophyton rubrum; Trichophyton mentagrophyte; Candida parapsilosis; Cryptococcus neoformans; and Aspergillus fumigatus were used to evaluate the activity of the test compounds in vitro. Inocula were prepared as broth cultures (yeasts) or as suspensions of fungal material made from agar slope cultures (moulds). The test compounds were pipetted from dimethylsulfoxide stock solution into water to provide a series of 10-fold dilutions. The fungal inocula were suspended in the growth medium CYG (F.C. Odds, Journal of Clinical Microbiology, 29, 2735-2740, 1991) at approximately 50,000 colony-forming units (CFU) per ml and added to the aqueous test drugs. The cultures were set up in the 96 wells of plastic microdilution plates and they were incubated for 2 days at 37° C. (Candida spp.) or for 5 days at 30° C. (other fungi). Growth in the microcultures was measured by their optical density (OD) measured at a wavelength of 405 nm. The OD for cultures with test compounds was calculated as a percentage of the OD for control cultures, i.e. the OD for cultures without test compounds. Inhibition of growth to 35% of control or less was recorded as significant inhibition. Minimal inhibitory concentration (MIC; in 10^−6 M) of some of the compounds of formula (I) for the tested species are listed in Table.

[2] = tested on: Candida parapsilosis; settings: single isolate, 2 days at 37° C., growth (OD 405 nm) inhibited to 35% of control or less
Experimental: as §1

[3] = tested on: Cryptococcus neoformans; settings: single isolate, 5 days at 30° C., growth (OD 405 nm) inhibited to 35% of control or less
Experimental: as §1

[4] = tested on: Microsporum canis; settings: single isolate, 5 days at 30° C., growth (OD 405 nm) inhibited to 35% of control or less
Experimental: as §1

[5] = tested on: Sporothrix schenckii; settings: single isolate, 5 days at 30° C., growth (OD 405 nm) inhibited to 35% of control or less
Experimental: as §1

[6] = tested on: Trichophyton mentagrophytes; settings: single isolate, 5 days at 30° C., growth (OD 405 nm) inhibited to 35% of control or less
Experimental: as §1

[7] = tested on: Trichophyton rubrum; settings: single isolate, 5 days at 30° C., growth (OD 405 nm) inhibited to 35% of control or less
Experimental: as §1

Compound | MIC values, Aspergillus fumigatus [1] | MIC values, Candida parapsilosis [2] | MIC values, Cryptococcus neoformans [3] | MIC values, Microsporum canis [4] | MIC values, Sporothrix schenkii [5] | MIC values, Trichophyton mentagrophytes [6] | MIC values, Trichophyton rubrum [7]
Br.COc1ccc(C2NCc3c(Cl)cccc3-n3cccc32)cc1 (stereo not drawn) [Comp. 1] | 10 10^−6 M | >10 10^−6 M | >10 10^−6 M | 5.5 10^−6 M | >10 10^−6 M | 2.1 10^−6 M | 2.1 10^−6 M
Br.CCc1ccc(C2NCc3c(Cl)cccc3-n3cccc32)cc1 (stereo not drawn) [Comp. 2] | 3.2 10^−6 M | 1 10^−6 M | >10 10^−6 M | 0.32 10^−6 M | >10 10^−6 M | 0.32 10^−6 M | 0.03 10^−6 M
Br.FC(F)(F)c1cccc(C2NCc3c(Cl)cccc3-n3cccc32)c1 (stereo not drawn) [Comp. 3] | 10 10^−6 M | >10 10^−6 M | >10 10^−6 M | 2.1 10^−6 M | >10 10^−6 M | 3.2 10^−6 M | 2.1 10^−6 M
Br.CC(C)c1ccc(C2NCc3ccccc3-n3cccc32)cc1 (stereo not drawn) [Comp. 4] | >10 10^−6 M | >10 10^−6 M | >10 10^−6 M | 10 10^−6 M | >10 10^−6 M | 3.2 10^−6 M | 3.2 10^−6 M
Br.Cc1ccc(C2NCc3c(Cl)cccc3-n3cccc32)cc1 (stereo not drawn) [Comp. 5] | >10 10^−6 M | >10 10^−6 M | >10 10^−6 M | 1 10^−6 M | >10 10^−6 M | 1 10^−6 M | 0.32 10^−6 M
Br.CC(C)c1ccc(C2NCc3c(Cl)cccc3-n3cccc32)cc1 (stereo not drawn) [Comp. 6] | >10 10^−6 M | 10 10^−6 M | >10 10^−6 M | 0.32 10^−6 M | >10 10^−6 M | 1 10^−6 M | 0.32 10^−6 M
Br.CC(C)(C)c1ccc(C2NCc3c(Cl)cccc3-n3cccc32)cc1 (stereo not drawn) [Comp. 7] | >10 10^−6 M | 10 10^−6 M | >10 10^−6 M | 0.32 10^−6 M | 10 10^−6 M | 1 10^−6 M | 0.1 10^−6 M
Br.CCCCc1ccc(C2NCc3c(Cl)cccc3-n3cccc32)cc1 (stereo not drawn) [Comp. 8] | >10 10^−6 M | >10 10^−6 M | >10 10^−6 M | 1 10^−6 M | >10 10^−6 M | 1 10^−6 M | 0.1 10^−6 M
Br.CCCc1ccc(C2NCc3c(Cl)cccc3-n3cccc32)cc1 (stereo not drawn) [Comp. 9] | >10 10^−6 M | 3.2 10^−6 M | >10 10^−6 M | 0.32 10^−6 M | >10 10^−6 M | 0.32 10^−6 M | 0.1 10^−6 M
CCc1ccc(C2c3cccn3-c3cccc(Cl)c3CN2C)cc1 (stereo not drawn) [Comp. 10, 4-(4′-ethylphenyl)-5-methyl-7-chlorobenzo[1,2]-pyrrolo-[1,2a][1,4]diazepine] | >10 10^−6 M | >10 10^−6 M | >10 10^−6 M | >10 10^−6 M | >10 10^−6 M | 10 10^−6 M | 3.2 10^−6 M
CCc1ccc(C2NCc3cc(Cl)ccc3-n3cccc32)cc1 (stereo not drawn) [Comp. 11] | >10 10^−6 M | >10 10^−6 M | >10 10^−6 M | >10 10^−6 M | >10 10^−6 M | 3.2 10^−6 M | 3.2 10^−6 M
Br.Clc1cccc2c1CNC(c1ccsc1)c1cccn1-2 (stereo not drawn) [Comp. 12] | >10 10^−6 M | >10 10^−6 M | >10 10^−6 M | >10 10^−6 M | >10 10^−6 M | >10 10^−6 M | 3.2 10^−6 M
Br.CCc1ccc(C2NCc3ccccc3-n3cccc32)cc1 (stereo not drawn) [Comp. 13] | >10 10^−6 M | >10 10^−6 M | >10 10^−6 M | >10 10^−6 M | >10 10^−6 M | 3.2 10^−6 M | 1 10^−6 M
CC(C)c1ccc(C2NCc3c(F)cccc3-n3cccc32)cc1 (stereo not drawn) [Comp. 14] | >10 10^−6 M | >10 10^−6 M | >10 10^−6 M | 10 10^−6 M | >10 10^−6 M | 1 10^−6 M | 0.32 10^−6 M
CCc1ccc(C2NCc3c(F)cccc3-n3cccc32)cc1 (stereo not drawn) [Comp. 15] | 10 10^−6 M | 10 10^−6 M | >10 10^−6 M | 3.2 10^−6 M | >10 10^−6 M | 1 10^−6 M | 0.32 10^−6 M
Br.CCc1ccc(C2NCc3ccc(Cl)cc3-n3cccc32)cc1 (stereo not drawn) [Comp. 16] | >10 10^−6 M | >10 10^−6 M | >10 10^−6 M | 1 10^−6 M | >10 10^−6 M | 1 10^−6 M | 0.1 10^−6 M
Br.CCOc1ccc(C2NCc3ccc(Cl)cc3-n3cccc32)cc1 (stereo not drawn) [Comp. 17] | >10 10^−6 M | >10 10^−6 M | >10 10^−6 M | >10 10^−6 M | >10 10^−6 M | 10 10^−6 M | 10 10^−6 M
Br.CC(C)c1ccc(C2NCc3ccc(Cl)cc3-n3cccc32)cc1 (stereo not drawn) [Comp. 18] | >10 10^−6 M | >10 10^−6 M | >10 10^−6 M | >10 10^−6 M | >10 10^−6 M | 1 10^−6 M | 1 10^−6 M
Br.Cc1ccc(C2NCc3ccc(Cl)cc3-n3cccc32)cc1 (stereo not drawn) [Comp. 19] | >10 10^−6 M | >10 10^−6 M | >10 10^−6 M | 10 10^−6 M | >10 10^−6 M | 3.2 10^−6 M | 0.32 10^−6 M
Br.N#Cc1ccc(C2NCc3ccc(Cl)cc3-n3cccc32)cc1 (stereo not drawn) [Comp. 20] | >10 10^−6 M | >10 10^−6 M | >10 10^−6 M | >10 10^−6 M | >10 10^−6 M | >10 10^−6 M | 0.32 10^−6 M
CCc1ccc(C2=NCc3ccccc3-n3cccc32)cc1 [Comp. 21] | 1 10^−6 M | 3.2 10^−6 M | >10 10^−6 M | 0.32 10^−6 M | 10 10^−6 M | 0.32 10^−6 M | 0.03 10^−6 M
